Tests used:
[1] = biological target: T1, purified recombinant human GAC (GLS1) (Homo sapiens, UniProt O94925); experiment: GLS1 Enzymatic Activity Assay (dual-coupled enzymatic assay); assay type: biochemical
T1 sequence (O94925 55-598 isoform O94925-3 limits assumed): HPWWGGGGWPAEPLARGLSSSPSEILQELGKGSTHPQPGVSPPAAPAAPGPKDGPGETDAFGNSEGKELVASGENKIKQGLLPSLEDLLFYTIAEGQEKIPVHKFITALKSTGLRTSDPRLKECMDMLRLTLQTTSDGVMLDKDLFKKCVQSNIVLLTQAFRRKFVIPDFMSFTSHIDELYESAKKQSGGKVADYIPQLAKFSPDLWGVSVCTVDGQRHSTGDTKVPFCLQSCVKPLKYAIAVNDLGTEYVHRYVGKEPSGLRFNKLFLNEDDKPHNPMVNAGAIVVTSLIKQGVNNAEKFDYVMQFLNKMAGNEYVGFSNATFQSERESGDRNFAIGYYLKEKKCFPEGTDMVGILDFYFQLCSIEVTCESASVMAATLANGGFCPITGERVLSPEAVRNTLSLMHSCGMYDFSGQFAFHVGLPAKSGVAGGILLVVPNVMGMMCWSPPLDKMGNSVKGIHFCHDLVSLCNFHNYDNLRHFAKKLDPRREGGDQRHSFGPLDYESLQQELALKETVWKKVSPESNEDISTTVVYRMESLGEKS
Experimental: GLS1 Enzymatic Activity Assay
The inhibition of purified recombinant human GAC by varying concentrations of inhibitors is assessed via a dual-coupled enzymatic assay. The glutamate produced by the glutaminase reaction is used by glutamate oxidase to produce α-ketoglutarate, ammonia, and hydrogen peroxide, with this hydrogen peroxide subsequently being used by horseradish peroxidase to produce resorufin in the presence of Amplex UltraRed. The assay buffer consisted of 50 mM Hepes (pH 7.4), 0.25 mM EDTA and 0.1 mM Triton X-100. GAC was incubated with potassium phosphate (10 minutes at room temperature) prior to incubation with inhibitor (10 minutes at room temperature). The final reaction conditions were as follows: 2 nM GAC, 50 mM potassium phosphate, 100 mU/mL glutamate oxidase (Sigma), 1 mM glutamine (Sigma), 100 mU/mL horseradish peroxidase (Sigma), 75 μM Amplex UltraRed (Life Technologies), and 1% (v/v) DMSO. The production of resorufin was monitored on a Perkin Elmer Envision plate reader (excitation 530 nm, emission 590 nm) either in a kinetics or endpoint mode (at 20 minutes). IC50 values were calculated using a four-parameter logistic curve fit.

A549 cells = experiment: Proliferation Assay (A549 cell viability, Cell Titer Fluor); assay type: cell-based; settings: Homo sapiens, 72 hours
Experimental: A549 cells were routinely maintained in RPMI 1640 media (Gibco catalog number 11875-093) supplemented with 10% dialyzed fetal bovine serum using a humidified incubator (37° C., 5% CO2 and ambient O2). In preparation for the viability assay, cells were inoculated into 384-well black CulturPlates (Perkin Elmer) at a density of 1000 cells/well in a volume of 40 uL. Following a 24-hour incubation at 37° C., 5% CO2 and ambient O2, cells were treated with compound (10 uL) in a final DMSO concentration of 0.5% (v/v). The microplates were then incubated for 72 hours (37° C., 5% CO2 and ambient O2). Cell Titer Fluor (Promega) was subsequently added (10 uL of 6× reagent) and mixed for 15 minutes at room temperature. The plates were then incubated for 30 minutes (37° C., 5% CO2 and ambient O2) and fluorescence was subsequently read on the Perkin Elmer Envision plate reader. EC50 values were calculated using a four-parameter logistic curve fit.

Compound | IC50 [1] [nM] | EC50 (A549 cells) [nM]
Nc1nnc(CCCCc2cc3cc[nH]c3nn2)s1 [Example 1, 5-(4-(7H-pyrrolo[2,3-c]pyridazin-3-yl)butyl)-1,3,4-thiadiazol-2-amine] | 500 to 5000 | –
O=C(Cc1ccccn1)Nc1nnc(CCCCc2cc3cc[nH]c3nn2)s1 [Example 2, N-(5-(4-(7H-pyrrolo[2,3-c]pyridazin-3-yl)butyl)-1,3,4-thiadiazol-2-yl)-2-(pyridin-2-yl)acetamide] | 500 to 5000 | 500 to 5000
O=C(Cc1ccccc1)Nc1nnc(CCCCc2cc3cc(Cc4ccccc4)[nH]c3nn2)s1 [Example 4, N-(5-(4-(6-benzyl-7H-pyrrolo[2,3-c]pyridazin-3-yl)butyl)-1,3,4-thiadiazol-2-yl)-2-phenylacetamide] | < 100 | 100 to 500
O=C(Nc1nnc(CCCCc2cc3cc(Cc4ccccc4)[nH]c3nn2)s1)[C@@H](O)c1ccccc1 [Example 5, (S)—N-(5-(4-(6-benzyl-7H-pyrrolo[2,3-c]pyridazin-3-yl)butyl)-1,3,4-thiadiazol-2-yl)-2-hydroxy-2-phenylacetamide] | < 100 | 100 to 500
O=C(Cc1ccccc1)Nc1nnc(CCCCCc2cc3cc(Cc4ccccc4)[nH]c3nn2)s1 [Example 7, N-(5-(5-(6-benzyl-7H-pyrrolo[2,3-c]pyridazin-3-yl)pentyl)-1,3,4-thiadiazol-2-yl)-2-phenylacetamide] | 500 to 5000 | –
O=C(NCc1ccccc1)c1cn(CCCCc2cc3cc[nH]c3nn2)nn1 [Example 11, 1-(4-(7H-pyrrolo[2,3-c]pyridazin-3-yl)butyl)-N-benzyl-1H-1,2,3-triazole-4-carboxamide] | 500 to 5000 | –

Other lines, results leading:

IC50 [1] [nM] | EC50 (A549 cells) [nM] | Compound
500 to 5000 | – | Nc1nnc(CCCCc2cnc3[nH]c(Cc4ccccc4)nc3c2)s1 [Example 22, 5-(4-(2-benzyl-3H-imidazo[4,5-b]pyridin-6-yl)butyl)-1,3,4-thiadiazol-2-amine]
500 to 5000 | – | O=C(Cc1ccccc1)Nc1nnc(CCCCc2cnc3[nH]c(Cc4ccccc4)nc3c2)s1 [Example 23, N-(5-(4-(2-benzyl-3H-imidazo[4,5-b]pyridin-6-yl)butyl)-1,3,4-thiadiazol-2-yl)-2-phenylacetamide]
500 to 5000 | – | O=C(NCc1ccccn1)c1cn(CCCCc2cc3cc[nH]c3nn2)nn1 [Example 25, 1-(4-(7H-pyrrolo[2,3-c]pyridazin-3-yl)butyl)-N-(pyridin-2-ylmethyl)-1H-1,2,3-triazole-4-carboxamide]
500 to 5000 | – | Nc1ccn(CCCCc2cc3cc(C4CC4)[nH]c3nn2)c(=O)c1 [Example 31, 4-amino-1-(4-{6-cyclopropyl-7H-pyrrolo[2,3-c]pyridazin-3-yl}butyl)-1,2-dihydropyridin-2-one]
< 100 | – | O=C(Cc1cccnc1)Nc1nnc(CCCCc2cc3cc(Cc4ccccc4)[nH]c3nn2)s1 [Example 57, N-[5-(4-{6-benzyl-7H-pyrrolo[2,3-c]pyridazin-3-yl}butyl)-1,3,4-thiadiazol-2-yl]-2-(pyridin-3-yl)acetamide]
500 to 5000 | – | CC(C)(O)CNC(=O)c1nnc(CCCCc2cc3cc(Cc4ccccc4)[nH]c3nn2)s1 [Example 71, 5-(4-{6-benzyl-7H-pyrrolo[2,3-c]pyridazin-3-yl}butyl)-N-(2-hydroxy-2-methylpropyl)-1,3,4-thiadiazole-2-carboxamide]
500 to 5000 | – | O=C(NCc1ccccn1)c1cn(CCCCc2cc3c4c([nH]c3nn2)CCC4)nn1 [Example 142, N-(pyridin-2-ylmethyl)-1-(4-(5,6,7,8-tetrahydrocyclopenta[4,5]pyrrolo[2,3-c]pyridazin-3-yl)butyl)-1H-1,2,3-triazole-4-carboxamide]
100 to 500 | – | O=C(NCc1cccc(OC(F)(F)F)c1)c1cn(CCCCc2cc3c(C4=CCNCC4)c(C4CC4)[nH]c3nn2)nn1 [Example 199, 1-{4-[6-cyclopropyl-5-(1,2,3,6-tetrahydropyridin-4-yl)-7H-pyrrolo[2,3-c]pyridazin-3-yl]butyl}-N-{[3-(trifluoromethoxy)phenyl]methyl}-1H-1,2,3-triazole-4-carboxamide]
